Measurements: ChEMBL document CHEMBL3046894, “Synthesis and Herbicidal Activity of Pyrimidinyl Salicylic and Thiosalicylic Acids” (J Pestic Sci, 1996)
The source made the active and inactive calls. The rule behind the calls is not given here.

Columns and labels:
Ipomoea lacunosa [1] = experiment: Pre-emergence herbicidal activity against Ipomoea lacunosa assessed as mortality at 200 g a.i/10 a; format: functional
Abutilon theophrasti [2] = experiment: Pre-emergence herbicidal activity against Abutilon theophrasti (velvetleaf) assessed as mortality at 200 g a.i/10 a; format: functional
Xanthium strumarium [3] = experiment: Pre-emergence herbicidal activity against Xanthium strumarium (cocklebur) assessed as mortality at 200 g a.i/10 a; format: functional, organism-based
Glycine max [4] = experiment: Pre-emergence phytotoxicity against Glycine max (soybean) assessed as mortality at 200 g a.i/10 a; format: organism-based; settings: in vivo, other
Echinochloa crus-galli [5] = experiment: Pre-emergence herbicidal activity against Echinochloa crus-galli (barnyard grass) assessed as mortality at 100 g a.i/10 a; format: functional
[6] = Pre-emergence phytotoxicity against Glycine max (soybean) assessed as mortality at 100 g a.i/10 a; format: organism-based; settings: in vivo
Xanthium strumarium [7] = experiment: Pre-emergence herbicidal activity against Xanthium strumarium (cocklebur) assessed as mortality at 100 g a.i/10 a; format: functional
Abutilon theophrasti [8] = experiment: Pre-emergence herbicidal activity against Abutilon theophrasti (velvetleaf) assessed as mortality at 100 g a.i/10 a; format: functional
Ipomoea lacunosa [9] = experiment: Pre-emergence herbicidal activity against Ipomoea lacunosa assessed as mortality at 100 g a.i/10 a; format: functional
Echinochloa crus-galli [10] = experiment: Pre-emergence herbicidal activity against Echinochloa crus-galli (barnyard grass) assessed as mortality at 200 g a.i/10 a; format: functional, organism-based
Digitaria sanguinalis [11] = experiment: Pre-emergence herbicidal activity against Digitaria sanguinalis (hairy crabgrass) assessed as growth inhibition at 25 g a.i/10 a; format: functional, organism-based
Zea mays [12] = experiment: Post-emergence phytotoxicity against Zea mays (maize) assessed as mortality at 1.6 g a.i/10 a applied 11 days after germination as foliar spray; format: organism-based; settings: in vivo, other, 264 h
Chenopodium album [13] = experiment: Pre-emergence herbicidal activity against Chenopodium album assessed as growth inhibition at 25 g a.i/10 a; format: functional, organism-based
Abutilon theophrasti [14] = experiment: Pre-emergence herbicidal activity against Abutilon theophrasti (velvetleaf) assessed as mortality at 6.3 g a.i/10 a; format: functional; settings: Abutilon theophrasti, pre-emergence
Glycine max [15] = experiment: Pre-emergence phytotoxicity against Glycine max (soybean) assessed as mortality at 1.6 g a.i/10 a; format: organism-based; settings: in vivo, other
Cyperus iria [16] = experiment: Pre-emergence herbicidal activity against Cyperus iria assessed as growth inhibition at 25 g a.i/10 a; format: functional, organism-based
Ipomoea lacunosa [17] = experiment: Pre-emergence herbicidal activity against Ipomoea lacunosa assessed as mortality at 6.3 g a.i/10 a; format: functional; settings: Ipomoea lacunosa, pre-emergence
Xanthium strumarium [18] = experiment: Post-emergence herbicidal activity against Xanthium strumarium (cocklebur) assessed as mortality at 1.6 g a.i/10 a applied 11 days after germination as foliar spray; format: functional; settings: 264 h
Gossypium hirsutum [19] = experiment: Pre-emergence phytotoxicity against Gossypium hirsutum (cotton) assessed as mortality at 6.3 g a.i/10 a; format: organism-based; settings: in vivo, other
Ipomoea lacunosa [20] = experiment: Pre-emergence herbicidal activity against Ipomoea lacunosa assessed as mortality at 1.6 g a.i/10 a; format: functional; settings: Ipomoea lacunosa, pre-emergence
Xanthium strumarium [21] = experiment: Post-emergence herbicidal activity against Xanthium strumarium (cocklebur) assessed as mortality at 6.3 g a.i/10 a applied 11 days after germination as foliar spray; format: functional; settings: 264 h
Amaranthus retroflexus [22] = experiment: Post-emergence herbicidal activity against Amaranthus retroflexus assessed as growth inhibition at 25 g a.i/10 a applied 11 days after germination as foliar spray; format: functional, organism-based
Zea mays [23] = experiment: Post-emergence phytotoxicity against Zea mays (maize) assessed as mortality at 6.3 g a.i/10 a applied 11 days after germination as foliar spray; format: organism-based; settings: in vivo, other, 264 h
Glycine max [24] = experiment: Post-emergence phytotoxicity against Glycine max (soybean) assessed as mortality at 1.6 g a.i/10 a applied 11 days after germination as foliar spray; format: organism-based; settings: in vivo, other, 264 h
Gossypium hirsutum [25] = experiment: Post-emergence phytotoxicity against Gossypium hirsutum (cotton) assessed as mortality at 6.3 g a.i/10 a applied 11 days after germination as foliar spray; format: organism-based; settings: in vivo, other, 264 h
Chenopodium album [26] = experiment: Post-emergence herbicidal activity against Chenopodium album assessed as growth inhibition at 25 g a.i/10 a applied 11 days after germination as foliar spray; format: functional, organism-based
Gossypium hirsutum [27] = experiment: Post-emergence phytotoxicity against Gossypium hirsutum (cotton) assessed as mortality at 1.6 g a.i/10 a applied 11 days after germination as foliar spray; format: organism-based; settings: in vivo, other, 264 h
Echinochloa crus-galli [28] = experiment: Pre-emergence herbicidal activity against Echinochloa crus-galli (barnyard grass) assessed as mortality at 6.3 g a.i/10 a; format: functional; settings: Echinochloa crus-galli, pre-emergence
Glycine max [29] = experiment: Pre-emergence phytotoxicity against Glycine max (soybean) assessed as mortality at 6.3 g a.i/10 a; format: organism-based; settings: in vivo, other
Digitaria sanguinalis [30] = experiment: Post-emergence herbicidal activity against Digitaria sanguinalis (hairy crabgrass) assessed as growth inhibition at 25 g a.i/10 a applied 11 days after germination as foliar spray; format: functional, organism-based
Echinochloa crus-galli [31] = experiment: Pre-emergence herbicidal activity against Echinochloa crus-galli (barnyard grass) assessed as growth inhibition at 25 g a.i/10 a; format: functional, organism-based
Amaranthus retroflexus [32] = experiment: Pre-emergence herbicidal activity against Amaranthus retroflexus assessed as growth inhibition at 25 g a.i/10 a; format: functional, organism-based
Glycine max [33] = experiment: Post-emergence phytotoxicity against Glycine max (soybean) assessed as mortality at 6.3 g a.i/10 a applied 11 days after germination as foliar spray; format: organism-based; settings: in vivo, other, 264 h
Xanthium strumarium [34] = experiment: Pre-emergence herbicidal activity against Xanthium strumarium (cocklebur) assessed as mortality at 6.3 g a.i/10 a; format: functional; settings: Xanthium strumarium, pre-emergence
Echinochloa crus-galli [35] = experiment: Post-emergence herbicidal activity against Echinochloa crus-galli (barnyard grass) assessed as growth inhibition at 25 g a.i/10 a applied 11 days after germination as foliar spray; format: functional, organism-based
Echinochloa crus-galli [36] = experiment: Pre-emergence herbicidal activity against Echinochloa crus-galli (barnyard grass) assessed as mortality at 1.6 g a.i/10 a; format: functional; settings: Echinochloa crus-galli, pre-emergence
Xanthium strumarium [37] = experiment: Pre-emergence herbicidal activity against Xanthium strumarium (cocklebur) assessed as mortality at 1.6 g a.i/10 a; format: functional; settings: Xanthium strumarium, pre-emergence
Persicaria nodosa [38] = experiment: Post-emergence herbicidal activity against Persicaria nodosa assessed as growth inhibition at 25 g a.i/10 a applied 11 days after germination as foliar spray; format: functional, organism-based
[39] = Pre-emergence phytotoxicity against Zea mays (maize) assessed as mortality at 1.6 g a.i/10 a; format: organism-based; settings: in vivo, 1.6 g a.i/10 a, read-out: mortality
Persicaria nodosa [40] = experiment: Pre-emergence herbicidal activity against Persicaria nodosa assessed as growth inhibition at 25 g a.i/10 a; format: functional, organism-based
Cyperus iria [41] = experiment: Post-emergence herbicidal activity against Cyperus iria assessed as growth inhibition at 25 g a.i/10 a applied 11 days after germination as foliar spray; format: functional, organism-based
Abutilon theophrasti [42] = experiment: Pre-emergence herbicidal activity against Abutilon theophrasti (velvetleaf) assessed as mortality at 1.6 g a.i/10 a; format: functional; settings: Abutilon theophrasti, pre-emergence

CN(C)C(=O)Nc1cccc(C(F)(F)F)c1 [FLUOMETURON]
mortality at 2000 g/ha (Ipomoea lacunosa [1]): < 5%
mortality at 2000 g/ha (Abutilon theophrasti [2]): < 5%
Activity (Xanthium strumarium [3]): inactive
Activity (Glycine max [4]): Toxic
mortality at 1000 g/ha (Echinochloa crus-galli [5]): < 5%
mortality [6]: < 5%
mortality at 1000 g/ha (Xanthium strumarium [7]): < 5%
mortality at 1000 g/ha (Abutilon theophrasti [8]): < 5%
mortality at 1000 g/ha (Ipomoea lacunosa [9]): < 5%
Activity (Echinochloa crus-galli [10]): Active

COC(=O)c1cccc(Oc2nc(OC)cc(OC)n2)c1C(=O)O
growth inhibition (GI) (Digitaria sanguinalis [11]): Active
Activity (Zea mays [12]): Toxic
growth inhibition (GI) (Chenopodium album [13]): Active
mortality at 63 g/ha (Abutilon theophrasti [14]): < 5%
Activity (Glycine max [15]): Non-toxic
growth inhibition (GI) (Cyperus iria [16]): Active
mortality at 63 g/ha (Ipomoea lacunosa [17]): < 5%
mortality at 16 g/ha (Xanthium strumarium [18]): < 5%
Activity (Gossypium hirsutum [19]): Non-toxic
mortality at 16 g/ha (Ipomoea lacunosa [20]): < 5%
mortality at 63 g/ha (Xanthium strumarium [21]): < 5%
growth inhibition (GI) (Amaranthus retroflexus [22]): Active
Activity (Zea mays [23]): Toxic
Activity (Glycine max [24]): Toxic
Activity (Gossypium hirsutum [25]): Toxic
growth inhibition (GI) (Chenopodium album [26]): Active
Activity (Gossypium hirsutum [27]): Toxic
mortality at 63 g/ha (Echinochloa crus-galli [28]): < 5%
Activity (Glycine max [29]): Non-toxic
growth inhibition (GI) (Digitaria sanguinalis [30]): Active
growth inhibition (GI) (Echinochloa crus-galli [31]): inactive
growth inhibition (GI) (Amaranthus retroflexus [32]): Active
Activity (Glycine max [33]): Toxic
mortality at 63 g/ha (Xanthium strumarium [34]): < 5%
growth inhibition (GI) (Echinochloa crus-galli [35]): Active
mortality at 16 g/ha (Echinochloa crus-galli [36]): < 5%
mortality at 16 g/ha (Xanthium strumarium [37]): < 5%
growth inhibition (GI) (Persicaria nodosa [38]): Active
mortality [39]: < 5%
growth inhibition (GI) (Persicaria nodosa [40]): Active
growth inhibition (GI) (Cyperus iria [41]): Active
mortality at 16 g/ha (Abutilon theophrasti [42]): < 5%
